Reference: patent US20200121651A1, “Pramipexole for Use in the Treatment of Pain” (STC.UNM, priority 2018, published 2020)
Like-named read-outs stand apart in the source and are kept apart here.

How the values were obtained:
[1] = test system: TLR4-mediated IL-1β release in THP-1 cells; conditions: for IL-1β release in the presence of LPS stimulation / basal cellular levels of IL-1β: THP-1 cells; for basal cellular levels of IL-1β: pramipexole alone, no LPS
Description: The assay was performed according to the manufacturer's instructions.

allodynia in CCI mice = conditions: for effect on allodynia (hindpaw absolute threshold): male CCI mice, i.v. injection day 10 post surgery, identical ipsilateral and contralateral
Description: The current report analyzed adult (10-16 week old) male C57BL/6 mice (wildtype; FFID: IMSR_JAX:000664) purchased from Jackson Laboratories (Bar Harbor, Me., USA). Mice were maintained on a standard 12:12 light/dark cycle (lights on from 0600 hours to 1800 hours) in a temperature controlled environment (23°±2° C.) for the duration of the study. Additionally, mice were housed in groups of 4-5 mice/cage, of which all mice were routinely monitored by the animal care staff under the direction of the institutional veterinarian, fed standard rodent chow and water ad libitum, with cages and bedding changed every 7 days. All procedures were approved by the Institutional Animal Care and Use Committee (IACUC) of the University of New Mexico Health Sciences Center, conducted in accordance to the NIH Guidelines for the Care and Use of Laboratory Animals, and closely adhered to guidelines from the International Association for the Study of Pain for the use of animals in research (Foundation for Biomedical Research, The Biomedical Investigator's Handbook for Researchers Using Animal Models. Washington, D.C.: FBR, 1987. WWW: http://www.fbresearch.org/).
This study utilized a modified version of a well-established rat peripheral nerve injury model in which pathological sensitivity to light touch, clinically termed allodynia, is induced through a chronic constriction injury (CCI) (Bennett and Xie 1988). […] Under isoflurane anesthesia (1.5-2.0% volume in oxygen, 2.0 l/min), the dorsal left thigh was shaved and cleaned using 70% Ethanol (EtOH) that was air dried prior to surgery. Utilizing a small incision over the posterior thigh, remaining […] below the femur bone, from hip bone to the patella, the muscle fascia of the mouse was exposed. Using aseptic procedures, a blunt dissection was performed to carefully isolate the sciatic nerve by separating the overlying muscular fascia. Sterile plastic probes were then used to locate and lift the sciatic nerve from its pocket within the muscle tissue. Mice were then subjected to unilateral loose ligation of the sciatic nerve with three 5-0 chromic gut sutures (Ethicon; Somerville, N.J., Cat #634G) which were snugly tied around the sciatic nerve (avoiding pinching) proximal to the trifurcation with 1.5 mm spacing between sutures. Throughout the duration of the surgery, sterile 0.9% isotonic saline (Hospira; Cat #NDC 0409-4888-03) was irrigated over the sciatic nerve to prevent dehydration. Sham surgery followed the same CCI surgical procedure identically but without ligation. Upon ligation, the sciatic nerve was gently placed back into its correct anatomical position using the sterile plastic probes, and the overlying muscle fascia was stitched closed using one 4-0 sterile silk sutures (Ethicon; Somerville, N.J., Cat #83G). Wound clips (Kent Scientific Corp.; Cat #INS750344) were then utilized to seal the incision closed at which point the surgical procedure was complete. […] Body weight was monitored prior to and after surgery.
Upon a 7-14 day acclimation to the testing environment, mice were subjected to a habituation period. The habituation period included placing the mice atop a testing rack within the first 4 hours of the light cycle (lights on from 0600 hours to 1800 hours) in a sound and temperature (23°±2° C.) controlled environment, allowing full access to the plantar hindpaw. Mice were exposed to four separate habitation periods for approximately 45 min/day.

[2] = CCI mice, i.v. day 10 post surgery

SMILES: CCCN[C@H]1CCc2nc(N)sc2C1 [Pramipexole, (6S)-6-N-propyl-4,5,6,7-tetrahydro-1,3-benzothiazole-2,6-diamine]
- IL-1β release in the presence of LPS stimulation ([1]; 5 pg pramipexole plus LPS): significantly blunts
- IL-1β release in the presence of LPS stimulation ([1]; 500 pg pramipexole plus LPS): significantly blunts
- basal cellular levels of IL-1β ([1]; 5 pg): does not significantly alter
- basal cellular levels of IL-1β ([1]; 500 pg): does not significantly alter
- TLR4-IL-1b activation pathway ([1]; cell-based assay using human THP-1 cells): inhibits the TLR4-IL-1b activation pathway
- efficacy on hindpaw withdraw thresholds, hours 24-72 post-injection (allodynia in CCI mice; CCI mice, i.v. 0.5 μg): complete dissipation in the efficacy
- time post-injection by which mice returned to allodynia (allodynia in CCI mice; CCI mice, i.v. 0.5 μg): ≤ 24 h
- time to complete reversal from allodynia (allodynia in CCI mice; CCI mice, i.v. 0.5 μg, day 10 post-surgery): ≤ 2 h
- efficacy on hindpaw withdraw thresholds, hours 24-72 post-injection (allodynia in CCI mice; CCI mice, i.v. 5 μg): complete dissipation in the efficacy
- time post-injection by which mice returned to allodynia (allodynia in CCI mice; CCI mice, i.v. 5 μg): ≤ 24 h
- time to complete reversal from allodynia (allodynia in CCI mice; CCI mice, i.v. 5 μg, day 10 post-surgery): ≤ 2 h
- duration of efficacy (allodynia in CCI mice; [2]): up to 2 hours
- time of maximal efficacy post-injection (allodynia in CCI mice; [2]): 2 h
- time to complete reversal from allodynia (allodynia in CCI mice; CCI mice, i.v. day 10 post surgery, dose not given in FIG. 1 legend): ≤ 1 h
- effect on allodynia (hindpaw absolute threshold) (allodynia in CCI mice): completely reversed from allodynia
- effect on allodynia (hindpaw absolute threshold) (allodynia in CCI mice; listed as pramipexole): completely abolishes allodynia
